Data reported in ChEMBL document CHEMBL5131375, “Recent Developments in the Use of Kinase Inhibitors for Management of Viral Infections” (J Med Chem, 2022).

Experiments:
[1] = molecular target: Aurora kinase B (Homo sapiens, UniProt Q96GD4); test: Inhibition of aurora B kinase (unknown origin)
[2] = Cytotoxicity against human JEG-3 cells; format: toxicity, cell-based
[3] = tested on: Zika virus; test: microbe, parasite or virus in culture
[4] = tested on: Influenza A virus; test: microbe, parasite or virus in culture; format: functional, organism-based
[5] = in vitro; conditions: human, bxpc-3
[6] = tested on: Influenza A virus; test: microbe, parasite or virus in culture; format: functional, organism-based; remark: listed apart in the source
[7] = Toxicity in mouse infected with Influenza A virus assessed as lethality at 75 mg/kg, po; format: organism-based; conditions: in vivo
[8] = in vitro; conditions: human, u-937
[9] = in vitro; conditions: human, jurkat
[10] = in vitro; conditions: human, ccrf-cem
[11] = tested on: Ebolavirus; test: microbe, parasite or virus in culture; format: functional, organism-based; conditions: Orthoebolavirus
[12] = tested on: SARS-CoV-2; test: Antiviral activity against SARS-CoV-2 assessed as inhibition of viral replication; format: functional, organism-based; conditions: Severe acute respiratory syndrome coronavirus 2
[13] = tested on: SARS-CoV-2; test: Antiviral activity against SARS-Cov-2 infected in 1 hr pretreated African green monkey Vero E6 cells assessed as inhibition of viral replication; format: functional, organism-based; conditions: Severe acute respiratory syndrome coronavirus 2, Vero C1008
[14] = tested on: Marburgvirus; test: microbe, parasite or virus in culture; format: functional, organism-based; conditions: Orthomarburgvirus, MDM
[15] = in vitro; conditions: chlorocebus sabaeus, Vero E6 cells
[16] = tested on: Marburgvirus; test: microbe, parasite or virus in culture; format: functional, organism-based; conditions: Orthomarburgvirus
[17] = tested on: Ebolavirus; test: microbe, parasite or virus in culture; format: functional, organism-based; conditions: Orthoebolavirus, MDM
[18] = tested on: SARS-CoV-2; test: microbe, parasite or virus in culture; format: functional, organism-based; conditions: Severe acute respiratory syndrome coronavirus 2
[19] = tested on: Ebolavirus; test: microbe, parasite or virus in culture; format: functional, organism-based; conditions: Orthoebolavirus; remark: listed apart in the source
[20] = tested on: Marburgvirus; test: microbe, parasite or virus in culture; format: functional, organism-based; conditions: Orthomarburgvirus, Huh-7
[21] = tested on: Lassa virus; test: microbe, parasite or virus in culture; format: functional, organism-based; conditions: Mammarenavirus lassaense, A549
[22] = tested on: Zika virus; test: Antiviral activity against ZIKV-PRVABC59 infected in human Huh-7 cells measured after 24 hrs; format: functional, organism-based; conditions: PRVABC59, Huh-7, 24 h
[23] = tested on: Ebolavirus; test: microbe, parasite or virus in culture; format: functional, organism-based; conditions: Orthoebolavirus, Huh-7
[24] = tested on: Zika virus; test: Antiviral activity against ZIKV-PRVABC59 infected in Neuronal cell line measured after 24 hrs; format: functional, organism-based
[25] = tested on: Nipah virus; test: microbe, parasite or virus in culture; format: functional, organism-based, HEK293T; conditions: Henipavirus nipahense, HEK-293T
[26] = in vitro; conditions: human, Huh-7 cells
[27] = tested on: Nipah virus; test: microbe, parasite or virus in culture; format: functional, organism-based; conditions: Henipavirus nipahense
[28] = tested on: Marburgvirus; test: microbe, parasite or virus in culture; format: functional, organism-based; conditions: Orthomarburgvirus; remark: listed apart in the source
[29] = tested on: Human alphaherpesvirus 2; test: Antiviral activity against HSV-2 assessed as reduction in virus titre at 10 uM relative to control; format: functional; design: scale not given: the % may be the effect or the level left
[30] = tested on: Human alphaherpesvirus 1; test: microbe, parasite or virus in culture; format: functional, organism-based
[31] = Cytotoxicity against HEK cells; format: toxicity, cell-based; conditions: human
[32] = in vitro; conditions: human, HeLa cells
[33] = molecular target: Inhibitor of nuclear factor kappa-B kinase subunit epsilon (Homo sapiens, UniProt Q14164); test: Inhibition of IKK epsilon (unknown origin)
[34] = Cytotoxicity against human HCE cells; format: toxicity, cell-based
[35] = in vitro; conditions: human, hek-293t
[36] = tested on: Mammarenavirus choriomeningitidis; format: functional; conditions: dose 0.5-5 µM
[37] = tested on: Human immunodeficiency virus; test: Antiviral activity against HIV p24 assessed as extracellular antigen accumulation in primary macrophage at 25 uM; format: functional
[38] = tested on: Human immunodeficiency virus 1; test: Antiviral activity against HIV-1 assessed as reduction of viral growth at 50 uM; format: functional; design: scale not given: the % may be the effect or the level left
[39] = tested on: Human alphaherpesvirus 1; test: Antiviral activity against HSV-1 infected in african green monkey Vero cells assessed as inhibition of cytopathic effect at 50 uM; format: functional; design: scale not given: the % may be the effect or the level left
[40] = in vitro; conditions: chlorocebus sabaeus, Vero cells
[41] = tested on: Pichinde virus; test: Antiviral activity against PICV assessed as reduction of viral growth at 50 uM; format: functional; design: scale not given: the % may be the effect or the level left
[42] = tested on: Human alphaherpesvirus 1; test: Antiviral activity against HSV-1 assessed as reduction of viral growth at 50 uM; format: functional; design: scale not given: the % may be the effect or the level left
[43] = tested on: Pichinde virus; test: Antiviral activity against PICV infected in african green monkey Vero cells assessed as reduction in viral titre at 100 uM relative to control; format: functional; design: scale not given: the % may be the effect or the level left
[44] = tested on: Hepatitis B virus; test: microbe, parasite or virus in culture; format: functional, organism-based; conditions: Hepatitis B virus
[45] = tested on: Human coronavirus 229E; test: Antiviral activity against HCoV-229E assessed as reduction of viral RNA level at 4 uM relative control; format: functional; design: scale not given: the % may be the effect or the level left
[46] = in vitro; conditions: human, l132
[47] = tested on: Murine coronavirus; test: Antiviral activity against MHV assessed as log reduction in virus progeny at 4 uM; format: functional
[48] = tested on: Transmissible gastroenteritis virus; test: Antiviral activity against TGEV assessed as reduction in virus titre at 4 uM; format: functional
[49] = tested on: Transmissible gastroenteritis virus; test: Antiviral activity against TGEV assessed as log reduction in virus progeny at 4 uM; format: functional
[50] = tested on: Porcine epidemic diarrhea virus; test: Antiviral activity against PEDV assessed as log reduction in virus progeny at 4 uM; format: functional
[51] = Inhibition of PDGF (unknown origin); design: species or system Homo sapiens
[52] = tested on: Feline infectious peritonitis virus; test: Antiviral activity against FIPV assessed as log reduction in virus progeny at 4 uM; format: functional
[53] = Cytotoxicity against golden hamster BSR cells; format: toxicity, cell-based, Mesocricetus auratus
[54] = tested on: Influenza A virus; test: Antiviral activity against influenza A virus infected in human A549 cells assessed as inhibition of viral replication at 4 uM relative to control; format: functional; design: scale not given: the % may be the effect or the level left
[55] = Cytotoxicity against pig PK-15 cells; format: toxicity, cell-based, Sus scrofa
[56] = tested on: Lyssavirus rabies; test: microbe, parasite or virus in culture; format: functional, organism-based

Chain of Inhibitor of nuclear factor kappa-B kinase subunit epsilon (Q14164 whole entry): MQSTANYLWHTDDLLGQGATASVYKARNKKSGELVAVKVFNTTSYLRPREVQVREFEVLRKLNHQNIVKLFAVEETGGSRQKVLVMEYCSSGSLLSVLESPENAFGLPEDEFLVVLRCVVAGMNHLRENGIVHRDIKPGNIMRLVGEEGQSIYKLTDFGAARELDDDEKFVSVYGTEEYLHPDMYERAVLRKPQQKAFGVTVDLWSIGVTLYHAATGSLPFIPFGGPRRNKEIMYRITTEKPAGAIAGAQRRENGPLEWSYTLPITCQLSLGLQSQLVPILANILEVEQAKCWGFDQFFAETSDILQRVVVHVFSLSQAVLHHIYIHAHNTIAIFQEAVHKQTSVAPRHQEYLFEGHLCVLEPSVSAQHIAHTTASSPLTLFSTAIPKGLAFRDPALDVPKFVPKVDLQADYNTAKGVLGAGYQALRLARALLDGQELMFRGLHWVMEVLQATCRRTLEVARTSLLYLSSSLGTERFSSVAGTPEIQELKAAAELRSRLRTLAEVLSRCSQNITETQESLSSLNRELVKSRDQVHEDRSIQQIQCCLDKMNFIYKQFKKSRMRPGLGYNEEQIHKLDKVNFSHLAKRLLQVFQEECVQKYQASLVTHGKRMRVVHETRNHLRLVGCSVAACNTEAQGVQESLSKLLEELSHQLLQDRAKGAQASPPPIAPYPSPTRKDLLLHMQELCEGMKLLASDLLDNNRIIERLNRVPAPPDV
Chain of Aurora kinase B (Q96GD4 whole entry): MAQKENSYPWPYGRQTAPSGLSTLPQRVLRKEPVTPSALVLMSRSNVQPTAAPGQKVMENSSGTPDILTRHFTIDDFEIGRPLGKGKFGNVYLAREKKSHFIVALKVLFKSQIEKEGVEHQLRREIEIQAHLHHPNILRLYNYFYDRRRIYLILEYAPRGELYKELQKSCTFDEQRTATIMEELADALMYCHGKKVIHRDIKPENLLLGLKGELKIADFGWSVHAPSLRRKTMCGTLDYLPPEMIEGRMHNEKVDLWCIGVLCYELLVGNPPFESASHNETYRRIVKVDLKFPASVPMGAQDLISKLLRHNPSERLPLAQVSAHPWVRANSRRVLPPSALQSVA

SMILES: c1cncc(CN2CCC(n3ncc4c(N5CCOCC5)nc(-c5ccc6[nH]ccc6c5)nc43)CC2)c1
- IC50 [1]: 0.25 µM
- CC50 [2]: > 10 µM
- EC50 [3]: 2.28 µM
- IC50 [3]: 2.3 µM

SMILES: O=C(NCc1ccncc1)C12CC3CC(C1)CC(c1ccc(Cl)cc1)(C3)C2 [ABC-294640]
- EC50 [4]: 1.78 µM
- CC50 [5]: 28.5 µM
- EC50 [6]: 1.78 µM
- Activity [7]: Non-Toxic

SMILES: O=C1Cc2c([nH]c3ccc([N+](=O)[O-])cc23)-c2ccccc2N1 [ALSTERPAULLONE]
- CC50 [8]: > 1 µM
- CC50 [9]: > 1 µM
- CC50 [10]: > 1 µM

SMILES: Cc1cccc(/C=N/Nc2cc(N3CCOCC3)nc(OCCc3ccccn3)n2)c1 [APILIMOD]
- EC50 [11]: 0.01 µM
- EC50 [12]: 0.023 µM
- EC50 [13]: 0.023 µM
- IC50 [14]: 0.01 µM
- CC50 [15]: > 1 µM
- EC50 [16]: 0.01 µM
- IC50 [17]: 0.01 µM
- EC50 [18]: 0.023 µM

SMILES: NCC(=O)Nc1ccc(-n2nc(C(F)(F)F)cc2-c2ccc3c(ccc4ccccc43)c2)cc1 [AR-12]
- EC50 [19]: 0.3 µM
- EC50 [20]: 0.3 µM
- EC50 [21]: 0.5 µM
- IC50 [22]: 2 µM
- IC50 [3]: < 2 µM
- EC50 [23]: 0.3 µM
- IC50 [24]: 2 µM
- EC50 [25]: 0.3 µM
- CC50 [26]: > 10 µM
- EC50 [27]: 0.3 µM
- EC50 [28]: 0.3 µM

SMILES: O=C(NCCCNc1nc(Nc2cccc(NC(=O)N3CCCC3)c2)ncc1I)c1cccs1 [BX-795]
- Activity [29]: >90%
- EC50 [30]: 10 µM
- CC50 [31]: 46 µM
- CC50 [32]: 46 µM
- IC50 [33]: 0.041 µM
- CC50 [34]: 46 µM

SMILES: Cn1c(=O)n(-c2ccc(C(C)(C)C#N)cc2)c2c3cc(-c4cnc5ccccc5c4)ccc3ncc21 [DACTOLISIB]
- CC50 [35]: > 5 µM
- log(activity) [36]: 2
- Activity [37]: 83%

SMILES: O=c1c(-c2ccc(O)cc2)coc2cc(O)cc(O)c12 [GENISTEIN]
- Activity [38]: >50%
- Activity [39]: 11%
- CC50 [40]: > 50 µM
- Activity [41]: >50%
- Activity [42]: >50%
- Activity [43]: 90%
- EC50 [44]: 33 µM

SMILES: C[S+]([O-])c1ccc(-c2nc(-c3ccc(F)cc3)c(-c3ccncc3)[nH]2)cc1 (stereo not drawn) [SB-203580]
- Activity [45]: 60%
- CC50 [46]: > 10 µM

SMILES: CC(C)(C)c1cc(C=C(C#N)C#N)cc(C(C)(C)C)c1O [TYRPHOSTIN A9]
- log(activity) [47]: 2.3
- log(activity) [48]: 3
- log(activity) [49]: 2.3
- log(activity) [50]: 2.3
- IC50 [51]: 0.5 µM
- log(activity) [52]: 2.3
- CC50 [53]: 150 µM
- Activity [54]: 50%
- CC50 [55]: > 6 µM
- EC50 [56]: 0.9 µM
